Experimental data as given in patent US10905688B2, “Combinations comprising substituted imidazo[1,5-α]pyrazinones as PDE1 inhibitors” (H. Lundbeck A/S, priority 2016, dated 2021).

How the values were obtained:
Format in all cases: biochemical
PDE1B = PDE1B (Homo sapiens (Human), UniProt Q01064); assay: PDE1 inhibition assay (PDE1B), SPA with tritium labelled cAMP
Protocol: (§1) Reactions were initiated by addition of the cyclic nucleotide substrate, and reactions were allowed to proceed for 1 h at room temperature before being terminated through mixing with 20 μL (0.2 mg) yttrium silicate SPA beads (PerkinElmer). The beads were allowed to settle for 1 h in the dark before the plates were counted in a Wallac 1450 Microbeta counter.

PDE9 = PDE9 (Homo sapiens (Human), UniProt O76083); assay: PDE9 inhibition assay, SPA with 3H-cAMP
Sequence of PDE9 (O76083 whole entry): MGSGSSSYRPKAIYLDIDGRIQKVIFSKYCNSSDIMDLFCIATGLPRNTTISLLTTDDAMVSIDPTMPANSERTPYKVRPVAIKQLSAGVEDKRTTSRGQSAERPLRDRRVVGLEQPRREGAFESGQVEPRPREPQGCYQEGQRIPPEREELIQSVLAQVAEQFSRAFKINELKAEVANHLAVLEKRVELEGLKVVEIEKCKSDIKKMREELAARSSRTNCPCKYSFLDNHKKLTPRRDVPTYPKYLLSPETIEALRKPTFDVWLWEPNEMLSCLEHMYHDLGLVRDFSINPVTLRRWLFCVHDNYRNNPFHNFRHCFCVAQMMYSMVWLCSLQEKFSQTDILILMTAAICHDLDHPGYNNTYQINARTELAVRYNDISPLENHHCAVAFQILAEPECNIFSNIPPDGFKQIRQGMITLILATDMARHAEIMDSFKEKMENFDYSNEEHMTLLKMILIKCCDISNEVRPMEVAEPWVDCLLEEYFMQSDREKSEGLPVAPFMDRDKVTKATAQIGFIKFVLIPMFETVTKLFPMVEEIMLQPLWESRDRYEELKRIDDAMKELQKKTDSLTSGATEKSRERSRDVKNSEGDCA
Protocol: A PDE9 assay may for example, be performed as follows: The assay is performed in 60 μL samples containing a fixed amount of the relevant PDE enzyme (sufficient to convert 20-25% of the cyclic nucleotide substrate), a buffer (50 mM HEPES pH 7.6; 10 mM MgCl2; 0.02% Tween20), 0.1 mg/mi BSA, 225 pCi of ^3H-labelled cyclic nucleotide substrate, tritium labeled cAMP to a final concentration of 5 nM and varying amounts of inhibitors. Reactions are initiated by addition of the cyclic nucleotide substrate, and reactions are allowed to proceed for one hr at room temperature before being terminated through mixing with 15 μL 8 mg/mL yttrium silicate SPA beads (Amersham). The beads are allowed to settle for one hr in the dark before the plates are counted in a Wallac 1450 Microbeta counter.
In the context of the present invention the assay was performed in 60 μL assay buffer (50 mM HEPES pH 7.6; 10 mM MgCl2; 0.02% Tween20) containing enough PDE9 to convert 20-25% of 10 nM ^3H-cAMP and varying amounts of inhibitors. Following a 1 hr incubation the reactions were terminated by addition of 15 μL 8 mg/mL yttrium silicate SPA beads (Amersham). The beads were allowed to settle for one hr in the dark before the plates were counted in a Wallac 1450 Microbeta counter.

PDE1C = PDE1C (Homo sapiens (Human), UniProt Q14123); assay: PDE1 inhibition assay (PDE1C), SPA with tritium labelled cAMP
Sequence of PDE1C (Q14123 whole entry): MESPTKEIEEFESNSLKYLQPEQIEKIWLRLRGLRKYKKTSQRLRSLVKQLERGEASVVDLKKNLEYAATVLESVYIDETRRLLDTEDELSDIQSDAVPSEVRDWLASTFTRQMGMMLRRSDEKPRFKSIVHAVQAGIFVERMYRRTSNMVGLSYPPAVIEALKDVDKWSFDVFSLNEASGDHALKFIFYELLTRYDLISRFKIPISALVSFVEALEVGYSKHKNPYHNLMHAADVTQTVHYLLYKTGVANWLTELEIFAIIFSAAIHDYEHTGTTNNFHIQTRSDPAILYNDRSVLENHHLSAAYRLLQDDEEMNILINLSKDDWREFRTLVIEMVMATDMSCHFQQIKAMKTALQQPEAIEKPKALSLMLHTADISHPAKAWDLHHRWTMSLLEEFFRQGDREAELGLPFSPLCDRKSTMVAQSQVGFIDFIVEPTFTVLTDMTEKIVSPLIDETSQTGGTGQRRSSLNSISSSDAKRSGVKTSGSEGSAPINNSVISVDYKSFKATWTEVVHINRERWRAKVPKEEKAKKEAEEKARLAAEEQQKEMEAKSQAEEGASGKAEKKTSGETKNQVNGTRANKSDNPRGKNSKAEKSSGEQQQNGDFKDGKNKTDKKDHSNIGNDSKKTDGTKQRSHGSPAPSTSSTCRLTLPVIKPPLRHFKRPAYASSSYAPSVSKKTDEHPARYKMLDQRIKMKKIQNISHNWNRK
Protocol: as §1

PDE1A = PDE1A (Homo sapiens (Human), UniProt P54750); assay: PDE1 inhibition assay (PDE1A), SPA with tritium labelled cAMP; conditions: for inhibition at 2 µM: read-out: PDE1A, % inhibition at 2 μM
Sequence of PDE1A (P54750 whole entry): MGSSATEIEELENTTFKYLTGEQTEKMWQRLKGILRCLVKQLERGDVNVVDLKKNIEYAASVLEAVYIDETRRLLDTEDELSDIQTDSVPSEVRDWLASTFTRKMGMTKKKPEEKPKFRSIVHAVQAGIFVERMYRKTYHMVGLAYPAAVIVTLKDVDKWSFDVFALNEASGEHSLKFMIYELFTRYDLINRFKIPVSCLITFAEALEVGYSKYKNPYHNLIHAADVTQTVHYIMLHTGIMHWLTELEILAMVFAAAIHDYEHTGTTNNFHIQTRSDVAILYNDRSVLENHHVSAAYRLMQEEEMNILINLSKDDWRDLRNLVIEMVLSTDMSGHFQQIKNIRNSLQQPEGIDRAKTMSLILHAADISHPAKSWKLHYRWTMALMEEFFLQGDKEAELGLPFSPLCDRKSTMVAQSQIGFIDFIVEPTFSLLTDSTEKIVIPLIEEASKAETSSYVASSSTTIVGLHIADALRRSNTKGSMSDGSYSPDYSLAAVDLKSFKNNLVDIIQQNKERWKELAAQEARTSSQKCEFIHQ
Protocol: Reactions were initiated by addition of the cyclic nucleotide substrate, and reactions were allowed to proceed for 1 h at room temperature before being terminated through mixing with 20 μL (0.2 mg) yttrium silicate SPA beads (PerkinElmer).

Sequence of PDE1B (Q01064 whole entry): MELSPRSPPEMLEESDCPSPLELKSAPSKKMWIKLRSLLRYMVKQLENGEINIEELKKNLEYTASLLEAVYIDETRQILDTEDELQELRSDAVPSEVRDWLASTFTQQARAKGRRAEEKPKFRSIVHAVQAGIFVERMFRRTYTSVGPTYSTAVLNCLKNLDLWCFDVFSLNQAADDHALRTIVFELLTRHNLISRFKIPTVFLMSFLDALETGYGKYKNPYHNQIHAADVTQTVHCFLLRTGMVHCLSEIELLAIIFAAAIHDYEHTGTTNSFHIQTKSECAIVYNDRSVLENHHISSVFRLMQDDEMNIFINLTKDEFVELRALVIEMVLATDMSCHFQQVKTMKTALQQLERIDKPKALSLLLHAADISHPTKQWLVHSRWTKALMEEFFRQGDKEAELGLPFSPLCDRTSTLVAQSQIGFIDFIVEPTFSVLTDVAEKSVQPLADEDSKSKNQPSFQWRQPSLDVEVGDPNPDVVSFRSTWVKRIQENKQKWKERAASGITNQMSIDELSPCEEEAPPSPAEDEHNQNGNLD

| IC50 (PDE1B) [nM] | % inhibition of PDE9 at 10 microM (PDE9) [%] | IC50 (PDE1C) [nM] | SMILES | other results |
| --- | --- | --- | --- | --- |
| 3 | – | – | COc1ccc(Cn2c(C)cn3c([C@H]4CCO[C@@H]4C)ncc3c2=O)cc1 (single isomer, unassigned; isomer 3) [55, isomer 3] | – |
| – | 2 | 153 | Cc1cn2c([C@H]3C[C@H]3F)ncc2c(=O)n1Cc1cccc(F)c1 (single isomer, unassigned; isomer 2) [38, isomer 2] | – |
| – | – | – | CCc1ccccc1Cn1c(C)cn2c(C3CCOCC3)ncc2c1=O [Example 49, 7-(2-ethylbenzyl)-6-methyl-3-(tetrahydro-2H-pyran-4-yl)imidazo[1,5-a]pyrazin-8(7H)-one] | inhibition at 2 µM (PDE1A): 44% |
| 134 | 9 | 27 | Cc1cn2c(N3CCC4OCC[C@H]43)ncc2c(=O)n1Cc1cccc(F)c1 (single isomer, unassigned; isomer 1) [99, isomer 1] | IC50 (PDE1A): 241 nM |
| 760 | 6 | 119 | Cc1cn2c(N3CCC4OCC[C@@H]43)ncc2c(=O)n1Cc1cccc(F)c1 (single isomer, unassigned; isomer 2) [99, isomer 2] | PDE1A, % inhibition at 10 μM (PDE1A; at 10 μM): 47% |
| – | −2 | 345 | Cc1cn2c([C@@H]3C[C@@H]3F)ncc2c(=O)n1Cc1cccc(F)c1 (single isomer, unassigned; isomer 1) [37, isomer 1] | – |
| – | −1 | – | Cc1cn2c([C@@H]3C[C@H]3F)ncc2c(=O)n1Cc1cccc(F)c1 (single isomer, unassigned; isomer 1) [38, isomer 1] | – |
| – | 13 | 55 | Cc1cn2c([C@H]3C[C@@H]3F)ncc2c(=O)n1Cc1cccc(F)c1 (single isomer, unassigned; isomer 2) [37, isomer 2] | – |
| – | – | – | Cc1cn2c(C3CCOCC3)ncc2c(=O)n1Cc1cccc(C#N)c1 [Example 45, 3-((6-methyl-8-oxo-3-(tetrahydro-2H-pyran-4-yl)imidazo[1,5-a]pyrazin-7(8H)-yl)methyl)benzonitrile] | inhibition at 2 µM (PDE1A): 64% |
